From patent US9657057B2, “Dipeptide and tripeptide epoxy ketone protease inhibitors” (Onyx Therapeutics, Inc., priority 2013, dated 2017)
Converted amounts (≈) assume the structure as drawn. “And” between values parts separate entries of the source, which are not always exact repeats. Equal values may be shown once.

Tests used:
β5 = target: T1, β5 (Homo sapiens, UniProt P20618+P28074); test: ProCISE proteasome subunit assay, β5; type: biochemical; conditions: MOLT4 lysate Hu 1 h
T1 construct: endogenous in cells; host or cells: MOLT-4
Method: (§1) This assay was used to assess the inhibitory activity against each of LMP2, LMP7, MECL1, β1, β2, and β5. Briefly, test compounds were serially diluted in DMSO at 100× concentration, then diluted to 10× in aqueous hypotonic lysis buffer. Lysate from the human acute lymphoblastic leukemia cell line, MOLT-4, was treated for 1 hour at 25° C. with compound at a final 1× concentration. […] Following this, lysate was denatured in guanidine hydrochloride, and subunits bound to probe were isolated with streptavidin-conjugated sepharose beads. Individual subunits were probed with subunit-specific primary antibodies, followed by HRP-conjugated secondary antibodies. A chemiluminescent substrate was used to generate signal associated with HRP binding, which was detected on a plate reader. Luminescent signal was normalized to protein content, then, percent activity calculated relative to DMSO-treated controls to generate IC50 curves.

[1] = target: c20S (constitutive 20S proteasome) (Homo sapiens, UniProt P20618+P28074); test: 20S proteasome assay, chymotrypsin-like activity (LLVY), c20S; type: biochemical; conditions: LLVY c20S Hu 1 h CONT: IC50 (nM), succinyl-Leu-Leu-Val-Tyr-AMC
From the text: (§2) Assay buffer consisted of TE buffer [20 mmol/L Tris (pH 8.0), 0.5 mmol/L EDTA] with (20S) or without (cell lysate) 0.03% SDS. Reactions were initiated by enzyme or lysate addition and monitored for AMC product formation at 27jC with a plate-based spectofluorometer (Tecan).

Solubility pH 7 = type: physicochemical; conditions: pH 7, aqueous buffer
LMP7 = target: T2, LMP7 (Homo sapiens, UniProt P20618+P28062); test: ProCISE proteasome subunit assay, LMP7; type: biochemical; conditions: MOLT4 lysate Hu 1 h
T2 construct: endogenous in cells; host or cells: MOLT-4
Method: as §1

[2] = target: i20S (20S immunoproteasome) (Homo sapiens, UniProt P20618+P28062); test: 20S proteasome assay, chymotrypsin-like activity (LLVY), i20S; type: biochemical; conditions: LLVY i20S Hu 1 h CONT: IC50 (nM), succinyl-Leu-Leu-Val-Tyr-AMC
From the text: as §2

SMILES	IC50 (β5) [µM]	IC50 [1]	solubility (Solubility pH 7) [µg/mL]	IC50 (LMP7) [nM]	IC50 [2]
COc1ccc(C[C@H](NC(=O)[C@H](C)NC(=O)c2cc(C)no2)C(=O)N[C@@H](CC2CCCC2)C(=O)[C@@]2(C)CO2)cc1 [Compound C-2022, N—((S)-1-(((S)-1-(((S)-3-cyclopentyl-1-((R)-2-methyloxiran-2-yl)-1-oxopropan-2-yl)amino)-3-(4-methoxyphenyl)-1-oxopropan-2-yl)amino)-1-oxopropan-2-yl)-3-methylisoxazole-5-carboxamide]	0.429	65.3 nM	84.7 (≈ 153 µM)	195	23.5 nM
COc1ccc(C[C@H](NC(=O)[C@@H](C)NC(=O)c2cc(C)no2)C(=O)N[C@@H](CC2CCCC2)C(=O)[C@@]2(C)CO2)cc1 [Compound C-2023, N—((R)-1-(((S)-1-(((S)-3-cyclopentyl-1-((R)-2-methyloxiran-2-yl)-1-oxopropan-2-yl)amino)-3-(4-methoxyphenyl)-1-oxopropan-2-yl)amino)-1-oxopropan-2-yl)-3-methylisoxazole-5-carboxamide]	2.69	857 nM	100 (≈ 181 µM)	318	55.3 nM
COc1ccc(C[C@H](NC(=O)[C@@H](C)NC(=O)c2cnc(C)s2)C(=O)N[C@@H](CC2CCCC2)C(=O)[C@@]2(C)CO2)cc1 [Compound C-2026, N—((R)-1-(((S)-1-(((S)-3-cyclopentyl-1-((R)-2-methyloxiran-2-yl)-1-oxopropan-2-yl)amino)-3-(4-methoxyphenyl)-1-oxopropan-2-yl)amino)-1-oxopropan-2-yl)-2-methylthiazole-5-carboxamide]	3.45	1360 nM	126 (≈ 221 µM)	170	64.6 nM
COc1ccc(C[C@H](NC(=O)[C@H](C)NC(=O)CC(C)(C)O)C(=O)N[C@@H](CC2CCCC2)C(=O)[C@@]2(C)CO2)cc1 [Compound C-2027, N—((S)-1-(((S)-1-(((S)-3-cyclopentyl-1-((R)-2-methyloxiran-2-yl)-1-oxopropan-2-yl)amino)-3-(4-methoxyphenyl)-1-oxopropan-2-yl)amino)-1-oxopropan-2-yl)-3-hydroxy-3-methylbutanamide]	3.6	2130 nM	753 (≈ 1380 µM)	618	470 nM
COc1ccc(C[C@H](NC(=O)[C@@H](C)NC(=O)CC(C)(C)O)C(=O)N[C@@H](CC2CCCC2)C(=O)[C@@]2(C)CO2)cc1 [Compound C-2028, N—((R)-1-(((S)-1-(((S)-3-cyclopentyl-1-((R)-2-methyloxiran-2-yl)-1-oxopropan-2-yl)amino)-3-(4-methoxyphenyl)-1-oxopropan-2-yl)amino)-1-oxopropan-2-yl)-3-hydroxy-3-methylbutanamide]	1.16	323 nM	776 (≈ 1420 µM)	75.7	11.9 nM
COc1ccc(C[C@H](NC(=O)[C@@H](CO)NC(=O)c2cc(C)no2)C(=O)N[C@@H](CC2CCCC2)C(=O)[C@@]2(C)CO2)cc1 [Compound C-2030, N—((R)-1-(((S)-1-(((S)-3-cyclopentyl-1-((R)-2-methyloxiran-2-yl)-1-oxopropan-2-yl)amino)-3-(4-methoxyphenyl)-1-oxopropan-2-yl)amino)-3-hydroxy-1-oxopropan-2-yl)-3-methylisoxazole-5-carboxamide]	2.13	785 nM	286 (≈ 502 µM)	315	71.7 nM
COc1ccc(C[C@H](NC(=O)[C@@H](C)NC(=O)c2ccccn2)C(=O)N[C@@H](CC2CCCC2)C(=O)[C@@]2(C)CO2)cc1 [Compound C-2031, N—((R)-1-(((S)-1-(((S)-3-cyclopentyl-1-((R)-2-methyloxiran-2-yl)-1-oxopropan-2-yl)amino)-3-(4-methoxyphenyl)-1-oxopropan-2-yl)amino)-1-oxopropan-2-yl)picolinamide]	26.7	18300 nM	41.7 (≈ 75.7 µM)	1450	763 nM
COc1ccc(C[C@H](NC(=O)[C@@H](C)NC(=O)c2cccnc2)C(=O)N[C@@H](CC2CCCC2)C(=O)[C@@]2(C)CO2)cc1 [Compound C-2032, N—((R)-1-(((S)-1-(((S)-3-cyclopentyl-1-((R)-2-methyloxiran-2-yl)-1-oxopropan-2-yl)amino)-3-(4-methoxyphenyl)-1-oxopropan-2-yl)amino)-1-oxopropan-2-yl)nicotinamide]	4.05	1890 nM	172 (≈ 313 µM)	452	107 nM
COc1ccc(C[C@H](NC(=O)[C@@H](C)NC(=O)c2ccncc2)C(=O)N[C@@H](CC2CCCC2)C(=O)[C@@]2(C)CO2)cc1 [Compound C-2033, N—((R)-1-(((S)-1-(((S)-3-cyclopentyl-1-((R)-2-methyloxiran-2-yl)-1-oxopropan-2-yl)amino)-3-(4-methoxyphenyl)-1-oxopropan-2-yl)amino)-1-oxopropan-2-yl)isonicotinamide]	> 250	10100 nM	165 (≈ 299 µM)	46700	1450 nM
COc1ccc(C[C@H](NC(=O)[C@@H](NC(=O)OCc2ccccc2)C2COC2)C(=O)N[C@@H](Cc2ccccc2)C(=O)[C@@]2(C)CO2)cc1 [Compound C-2035, benzyl ((S)-2-(((S)-3-(4-methoxyphenyl)-1-(((S)-1-((R)-2-methyloxiran-2-yl)-1-oxo-3-phenylpropan-2-yl)amino)-1-oxopropan-2-yl)amino)-1-(oxetan-3-yl)-2-oxoethyl)carbamate]	0.0211	15.3 nM	3.1 (≈ 4.92 µM)	13.2	4.6 nM
COc1ccc(C[C@H](NC(=O)[C@@H](C)NC(=O)C2=CCCC2)C(=O)N[C@@H](CC2CCCC2)C(=O)[C@@]2(C)CO2)cc1 [Compound C-2037, N—((R)-1-(((S)-1-(((S)-3-cyclopentyl-1-((R)-2-methyloxiran-2-yl)-1-oxopropan-2-yl)amino)-3-(4-methoxyphenyl)-1-oxopropan-2-yl)amino)-1-oxopropan-2-yl)cyclopent-1-enecarboxamide]	9.63	6080 nM	3.6 (≈ 6.67 µM)	466	891 nM
COc1ccc(C[C@H](NC(=O)[C@@H](C)NC(=O)c2nc3ccccc3n2C)C(=O)N[C@@H](CC2CCCC2)C(=O)[C@@]2(C)CO2)cc1 [Compound C-2038, N—((R)-1-(((S)-1-(((S)-3-cyclopentyl-1-((R)-2-methyloxiran-2-yl)-1-oxopropan-2-yl)amino)-3-(4-methoxyphenyl)-1-oxopropan-2-yl)amino)-1-oxopropan-2-yl)-1-methyl-1H-benzo[d]imidazole-2-carboxamide]	2.7	3550 nM and 7630 nM	1.8 (≈ 2.98 µM)	286	722 nM and 649 nM
COc1ccc(C[C@H](NC(=O)[C@@H](C)NC(=O)C2=C(C)c3ccccc3C2)C(=O)N[C@@H](CC2CCCC2)C(=O)[C@@]2(C)CO2)cc1 [Compound C-2040, N—((R)-1-(((S)-1-(((S)-3-cyclopentyl-1-((R)-2-methyloxiran-2-yl)-1-oxopropan-2-yl)amino)-3-(4-methoxyphenyl)-1-oxopropan-2-yl)amino)-1-oxopropan-2-yl)-3-methyl-1H-indene-2-carboxamide]	3.75	4610 nM	0.3 (≈ 0.499 µM)	75	624 nM
